Consider 15 molecules from patent US20240425464A1, “Substituted Monohydrazides as Potent Antifungal Agents” (University of Kentucky Research Foundation, priority 2023, published 2024).

In one series the test system is HepG2 cells. Description: In vitro cytotoxicity assay (resazurin). Format: cell-based. The settings on record: for toxicity: up to 31.3 j·tg mL^−1, 24 h; for cell survival: at 31.3 j·tg mL^−1. The procedure:
The antifungal agent amphotericin B (AmB) was purchased from VWR (Radnor PA, USA). AmB was dissolved in DMSO at a final concentration of 5 mg/mL and was stored at −20° C., protected from light. […] For cytotoxicity assays, HepG2 and the mouse macrophage cell line J774A.1 were obtained from University of Kentucky. […] Mammalian cells were grown in Dulbecco's Modified Eagle's Medium (DMEM) (from VWR) with 10% fetal bovine serum (FBS) (from VWR) and 1% Pen/Strep (from ATCC). Cell lines were cultured at 37° C. with 5% CO2 and passaged by trypsinization with 0.05% trypsin: 0.53 mM EDTA (from Sigma-Aldrich).
Cytotoxicity assays were performed as previously described with slight modifications.^3 HepG2, J774A.1, and HEK-293 cells were first thawed from frozen stocks kept in liquid N2 and grown in Dulbecco's modified Eagles's medium (DMEM) containing 10% fetal bovine serum (FBS) and 1% Pen/Strep. […] The 96-well plates were incubated 37° C. with 5% CO2 overnight. […] The medium in the 96-well plates containing the cells was aspirated and replaced by fresh DMEM (100 μL). […] The 96-well plates were further incubated for 24 h at 37° C. with 5% CO2 overnight. To evaluate cell survival, each well was treated with 10 μL (2 mM) of resazurin sodium salt (Sigma-Aldrich, St. Louis, MO, USA) and was incubated for another 6 h. Metabolically active cells can convert resazurin to the highly fluorescent dye, resorufin, and be detected at ?560 excitation and λ590 emission using a SpectraMax M5 plate reader (Molecular Devices, San Jose, CA, USA). Triton X-100® (1%, v/v) was used as positive control; the negative control consisted of cells treated with the delivery vehicle (0.05% DMSO), and the blank control was only the culture medium with 0.05% DMSO without cells. The experiments were performed in quadruplicate.
In general terms: Alamar Blue is a resazurin reagent that responds to reducing activity.

In series [1] the test system is C. albicans ATCC 10231 (strain A) biofilm formation. Description: Prevention of biofilm formation assay. In kind it is cell-based, Candida albicans. The procedure: Biofilm prevention assays were set up identically to the ordinary MIC experiment, where compounds were diluted, and the fungi added. After overnight growth, the plates were washed as in the biofilm disruption assay and stained and measured in the same fashion.
A large amount of fungal cells were exposed to the monohydrazides at time 0 h to evaluate the effect of these compounds in the prevention of Candida biofilm formation (FIG. 5B). […] Although some of these monohydrazides were able to prevent biofilm formation, none of these compounds had any effect in terms of the disruption of already pre-formed biofilms (FIG. 5A).

Series [2] has as its system C. albicans ATCC 10231 (strain A). Description: Time-kill assay. In kind it is cell-based, Candida albicans. The settings on record: at 4×MIC; CFU at 0-24 h. The procedure:
Compounds were then added to the fungal cells. […] Experiments were performed in duplicate.

Series [3] deals with Saccharomyces cerevisiae AR Bank #400. Put plainly: MIC determination by in vitro antifungal assay. Format: cell-based. In outline: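 Yeasts from the CDC AR Bank were grown at 35° C in RPMI 1640 buffered to pH 7.0 with 0.165 M MOPS. Actively growing cultures were adjusted to OD600 0.12 (˜1×10^6 CFU/mL), then diluted 1:100 in RPMI 1640 for testing.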

Each structure is given as a SMILES string. In brackets after ≈: the same amount, converted by molar mass. Like-named read-outs stand apart in the source and are kept apart here.

As to `O=C(NNc1cccc(F)c1)c1ccccn1` [Compound 2a], the toxicity entry with HepG2 cells is “no toxicity”. Also, the “concentration active in prevention of biofilm formation” value (shortened to “concentration active in prevention”) in series [1] amounted to 7.8 j·tg mL^−1.

Turning to `O=C(NNc1cccc(Cl)c1)c1ccccn1` [Compound 2b], the “fungistatic or fungicidal behavior in time-kill assay” value in series [2] is “fungistatic”. For the same molecule, the toxicity result with HepG2 cells is listed as “no toxicity”.

As for `COc1cccc(NNC(=O)c2ccccn2)c1` [Compound 2c], the “concentration active in prevention” value in series [1] stood at 1.96 j·tg mL^−1. This molecule registered an MIC in series [3] of 7.8 μg/mL^−1.

`O=C(NNc1ccc(F)cc1)c1ccccn1` [Compound 2d]: the toxicity entry with HepG2 cells is “no toxicity”. The “concentration active in prevention” value in series [1] came to 1.96 j·tg mL^−1.

Regarding `COc1ccc(NNC(=O)c2ccccn2)cc1` [Compound 2f], in series [1], the “concentration active in prevention” value is on record as 7.8 j·tg mL^−1.

Consider `O=C(NNc1ccc(F)cc1F)c1ccccn1` [Compound 2g], for which the toxicity result with HepG2 cells is listed as “no toxicity”. In addition, the “prevention of biofilm formation” value in series [1] was “not capable of preventing”.

With `O=C(NNc1cc(F)ccc1F)c1ccccn1` [Compound 2h], in series [1], the “prevention of biofilm formation” value is “not capable of preventing”.

For the molecule `O=C(NNc1cc(F)cc(F)c1)c1ccccn1` [Compound 2i], in the series on HepG2 cells, the cell survival is reported as 89%. The “prevention of biofilm formation” value in series [1] is on record as “not capable of preventing”.

Regarding `O=C(NNc1cc(Cl)cc(Cl)c1)c1ccccn1` [Compound 2j], in series [1], the “prevention of biofilm formation” value is “not capable of preventing”. Moreover, the MIC in series [3] (read-out: MIC) is 3.9 µg/mL (≈ 13.8 µM).

In turn, `O=C(NNc1cccc(F)c1)c1cnccn1` [Compound 9a] yielded a cell survival with HepG2 cells of 94%.

Take `O=C(NNc1cccc(Cl)c1)c1cnccn1` [Compound 9b]: the toxicity entry in the series on HepG2 cells is recorded as “no toxicity”.

As to `COc1cccc(NNC(=O)c2cnccn2)c1` [Compound 9c], the toxicity entry with HepG2 cells was “no toxicity”. Also, the MIC in series [3] (read-out: MIC) came out at 3.9 µg/mL (≈ 16 µM).

With `O=C(NNc1ccc(Cl)cc1)c1cnccn1` [Compound 9e], the MIC in series [3] was determined as 3.9 μg/mL^−1.

As for `COc1ccc(NNC(=O)c2cnccn2)cc1` [Compound 9f], the toxicity entry in the series on HepG2 cells is “no toxicity”.

On to `O=C(NNc1ccc(F)cc1F)c1cnccn1` [Compound 9g], for which the toxicity result with HepG2 cells was “no toxicity”.
